In US8361962B2, “Tricyclic inhibitors of JAK” (Roche Palo Alto LLC, priority 2009, dated 2013):

Target: T1, h-jak3 (JAK3: Recombinant human kinase domain) (Homo sapiens, UniProt P52333)
T1 construct: JAK3: Recombinant human kinase domain from Millipore (Cat # 14-629); purchased Millipore 14-629
Test: Determination of IC50 of Janus Kinase (JAK) inhibition, radioactive end-point 33P-ATP assay, JAK3
Type: biochemical
From the text: Determination of IC50 of Janus Kinase (JAK) Inhibition:
Enzymes and peptide substrate used are described below: • JAK1: Recombinant human kinase domain from Invitrogen (Cat # PV4774) • JAK3: Recombinant human kinase domain from Millipore (Cat # 14-629) • JAK2: Recombinant human kinase domain from Millipore (Cat # 14-640) • Substrate: N-terminally biotinylated 14-mer peptide derived from activation loop of JAK1 with sequence of the peptide substrate: Biotin-KAIETDKEYYTVKD (SEQ ID NO: 1)
Assay conditions used are described below: • Assay Buffer: JAK Kinase Buffer: 50 mM Hepes [pH 7.2], 10 mM MgCl2, 1 mM DTT, 1 mg/ml BSA. The assay is carried out in this buffer. • Assay Format: The kinase activity of all three JAK kinases is measured using a radioactive, end-point assay and with trace amounts of ^33P-ATP. The assays are carried out in 96-well polypropylene plates. Experimental Method:
All concentrations are final in the reaction mixture and all incubations are carried at room temperature. Assay steps are described below: • Compounds are serially diluted in 100% DMSO typically at a 10× starting concentration of 1 mM. Final concentration of DMSO in the reaction is 10%. • Compounds are preincubated with enzyme (0.5 nM JAK3, 1 nM JAK2, 5 nM JAK1) for 10 minutes. • Reactions are initiated by the addition of a cocktail of the two substrates (ATP and peptide premixed in the JAK Kinase Buffer). In the JAK2/JAK3 assays, ATP and the peptide are used at concentrations of 1.5 uM and 50 uM, respectively. JAK1 assay is carried out at an ATP concentration of 10 uM and a peptide concentration of 50 uM. The duration of the assay for JAK2 and JAK3 is 20 minutes. JAK1 assay is carried out for 40 minutes. With all three enzymes, reactions are terminated by the addition of 0.5M EDTA to a final concentration of 100 mM. • 25 ul of terminated reactions are transferred to 150 ul of a 7.5% (v/v) slurry of streptavidin-coated sepharose beads in MgCl2- and CaCl2-free 1× Phosphate Buffered Saline containing 50 mM of EDTA in 96-well, 1.2 um MultiScreen-BV filter plates. After a 30-minute incubation, the beads are washed under vacuum with the following buffers: • 3 to 4 washes with 200 ul of 2M NaCl. • 3 to 4 washes with 200 ul of 2M NaCl plus 1% (v/v) phosphoric acid. • 1 wash with water. • Washed plates are dried in a 60° C. oven for between 1 to 2 hours. • 70 ul of Microscint 20 scintillation fluid is added to each well of filter plates and after at least 30 minutes of incubation, radioactive counts are measured in a Perkin Elmer microplate scintillation counter.

T1 sequence (P52333 822-1111 limits assumed): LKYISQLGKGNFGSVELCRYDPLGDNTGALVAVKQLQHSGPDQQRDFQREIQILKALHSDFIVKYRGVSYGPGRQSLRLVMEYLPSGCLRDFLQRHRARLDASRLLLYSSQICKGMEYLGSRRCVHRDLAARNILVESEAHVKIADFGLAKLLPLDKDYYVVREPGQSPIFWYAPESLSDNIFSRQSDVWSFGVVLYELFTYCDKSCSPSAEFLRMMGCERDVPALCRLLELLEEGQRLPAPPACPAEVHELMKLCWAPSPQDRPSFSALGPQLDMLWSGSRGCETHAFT

SMILES | IC50 [nM] | Ki [nM]
CC1CCCCN1c1ccc2cnc3[nH]ccc3n12 (centres unmarked) [Compound I-3, 8-(2-Methyl-piperidin-1-yl)-3H-3,4,8a-triaza-as-indacene] | 39.9 | 20.5
CCS(=O)(=O)N1CCC(C)[C@H](c2ccc3cnc4[nH]ccc4n23)C1 (stereo in doubt) [Compound I-5, 8-((3S,4S)-1-Ethanesulfonyl-4-methyl-piperidin-3-yl)-3H-3,4,8a-triaza-as-indacene] | 203 | 119
c1cc2c(ncc3cnc(C4CCCCC4)n32)[nH]1 [Compound I-10, 1-Cyclohexyl-6H-2,5,6,8b-tetraaza-as-indacene] | 93 | 47.7
c1cc2c(ncc3ccc(C4CCCCC4)n32)[nH]1 [Compound I-2, 8-Cyclohexyl-3H-3,4,8a-triaza-as-indacene] | 20.2 | 10.4
CCS(=O)(=O)N1CC[C@H](C)[C@H](c2ccc3cnc4[nH]ccc4n23)C1 [Compound I-4, 8-((3S,4S)-1-Ethanesulfonyl-4-methyl-piperidin-3-yl)-3H-3,4,8a-triaza-as-indacene] | – | 0.964

Next, values leading:

IC50 [nM] | Ki [nM] | SMILES
69.3 | 35.5 | C[C@H]1CCCC[C@H]1c1nnc2cnc3[nH]ccc3n12 [Compound I-6, 1-((1R,2S)-2-Methyl-cyclohexyl)-6H-2,3,5,6,8b-pentaaza-as-indacene]
449 | 225 | c1cc2c(ncc3nnc(C4CCCCC4)n32)[nH]1 [Compound I-8, 1-Cyclohexyl-6H-2,3,5,6,8b-pentaaza-as-indacene]
231 | 103 | CCS(=O)(=O)N1CC[C@@H](C)[C@@H](c2nnc3cnc4[nH]ccc4n23)C1 [Compound I-7, 1-((3R,4R)-1-Ethanesulfonyl-4-methyl-piperidin-3-yl)-6H-2,3,5,6,8b-pentaaza-as-indacene]
25 | 12.8 | C[C@H]1CCN(C(=O)CC#N)C[C@H]1c1nnc2cnc3[nH]ccc3n12 [Compound I-9, 3-[(3S,4S)-4-Methyl-3-(6H-2,3,5,6,8b-pentaaza-as-indacen-1-yl)-piperidin-1-yl]-3-oxo-propionitrile]
